These results are taken from ChEMBL document CHEMBL1201862, “PubChem BioAssay data set” (2004).

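Values below derive from 48-hour exposures of cells grown in 96-well plates, with endpoints linearly interpolated between the two concentrations bracketing the appropriate inhibition level. GI50 marks 50% less growth.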 Activity calls are given as the source filed them. No stated cut-off is given here; in the data, active = GI50 up to about 1.1 µM and inactive = higher.

Some test systems named below: A549; ACHN; EKVX; HCT-116; HCT-15; HL-60; HT-29; LOX IMVI; MCF7; MDA-MB-231; MDA-MB-435; Malme-3M; NCI/ADR-RES; OVCAR-3; SK-OV-3; SN12C; SR; SW-620; UACC-257; UACC-62.
What all share (test): NCI tumour cell line growth inhibition, 48 h

For `C=C1CCCC(C)(C)[C@H]1C/C=C1\CCOC1=O`, the GI50 was 13.7 µM (inactive) in the assay on A549; 15.7 µM (inactive) in the assay on ACHN; 15.9 µM (inactive) in the assay with EKVX; 12.6 µM (inactive) in the assay on HCT-116; 14.5 µM with HCT-15; 11.5 µM (inactive) in the assay with HL-60. In addition, the GI50 with HT-29 is 13.9 µM (inactive); in the assay on LOX IMVI it was 11.5 µM (inactive); in the assay with MCF7, 12.8 µM (inactive); with MDA-MB-231, 17.7 µM (inactive); in the assay with MDA-MB-435, 10.3 µM (inactive); in the assay with Malme-3M, 13.5 µM (inactive). The GI50 in the assay on NCI/ADR-RES is 10.5 µM (inactive); with OVCAR-3 it was 15 µM (inactive); in the assay on SK-OV-3 it was 10.5 µM (inactive); with SN12C, 18.2 µM (inactive); in the assay on SR it was 12.4 µM (inactive); in the assay with SW-620, 18.7 µM (inactive). The GI50 with UACC-257 was 12.1 µM (inactive); in the assay on UACC-62 it was 29.4 µM (inactive).

With `CCC(CCCN)Nc1cc(OC)cc2c(C)ccnc12` (stereo not given), the GI50 with A549 was 15.6 µM (inactive); in the assay with ACHN, 18.3 µM (inactive); with EKVX, 18.4 µM (inactive); in the assay on HCT-116, 15.9 µM (inactive); in the assay with HCT-15, 22.9 µM; with HL-60, 12.4 µM (inactive). For the same compound, the GI50 was 14.3 µM (inactive) in the assay on HT-29; 16.3 µM (inactive) in the assay with LOX IMVI; 15 µM (inactive) in the assay with MCF7; 13.3 µM (inactive) in the assay with MDA-MB-231; 14.8 µM (inactive) in the assay on MDA-MB-435; 19.6 µM (inactive) in the assay with Malme-3M. For the same compound, the GI50 was 25.1 µM (inactive) in the assay on NCI/ADR-RES; 15.4 µM (inactive) in the assay on OVCAR-3; 13.6 µM (inactive) in the assay on SK-OV-3; 21.2 µM (inactive) with SN12C; 15.3 µM (inactive) with SR; 20.8 µM (inactive) in the assay with SW-620. Also, the GI50 in the assay with UACC-257 is 17.9 µM (inactive); in the assay on UACC-62 it was > 10 µM (inactive).

For the compound `Nc1cc(-c2ccc(Cl)cc2)nn1-c1nc2ccccc2nc1-c1ccccc1`, the GI50 was > 100 µM (inactive) in the assay on A549; 70.6 µM (inactive) in the assay on ACHN; > 100 µM (inactive) in the assay with EKVX; > 100 µM (inactive) in the assay with HCT-116; above 100 µM in the assay with HCT-15; > 100 µM (inactive) in the assay on HL-60. For the same compound, the GI50 is 11.9 µM (inactive) in the assay on HT-29; > 100 µM (inactive) in the assay with LOX IMVI; > 100 µM (inactive) in the assay with MCF7; > 100 µM (inactive) in the assay with MDA-MB-231; > 100 µM (inactive) with MDA-MB-435; 50.9 µM (inactive) in the assay on Malme-3M. Also, the GI50 in the assay with NCI/ADR-RES was > 100 µM (inactive); with OVCAR-3, 65 µM (inactive); with SK-OV-3, > 100 µM (inactive); with SN12C it was 80.7 µM (inactive); with SR it was 71.8 µM (inactive); in the assay on SW-620, > 100 µM (inactive). For the same compound, the GI50 with UACC-257 and with UACC-62 was > 100 µM (inactive) throughout.

Consider `Oc1ccc(Cc2nccc3cc(O)c(O)cc23)cc1O`, for which the GI50 with A549 is 54.3 µM (inactive); in the assay on ACHN it was 88.1 µM (inactive); in the assay on EKVX it was 26.5 µM (inactive); in the assay on HCT-116, 17.7 µM (inactive); in the assay with HCT-15, 57.7 µM; in the assay on HL-60, 26.3 µM (inactive). Besides, the GI50 in the assay with HT-29 is 53.5 µM (inactive); in the assay with LOX IMVI it was 33.5 µM (inactive); in the assay with MCF7 it was 21.5 µM (inactive); in the assay on MDA-MB-231, 97.1 µM (inactive); in the assay on MDA-MB-435 it was 51.3 µM (inactive); in the assay on Malme-3M, > 100 µM (inactive). Further, the GI50 in the assay on NCI/ADR-RES was > 100 µM (inactive); with OVCAR-3 it was 90.8 µM (inactive); in the assay with SK-OV-3, 66.8 µM (inactive); with SN12C, 29.9 µM (inactive); in the assay on SR, 19.6 µM (inactive); with SW-620 it was 36.1 µM (inactive). The GI50 in the assay with UACC-257 is 20.8 µM (inactive); in the assay on UACC-62, 33.4 µM (inactive).

Regarding `NNC(=S)N/N=C(/C(=O)Nc1ccc(Cl)c(Cl)c1)C(C1OC(=O)c2ccccc21)[N+](=O)[O-]` (stereo not given), the GI50 with A549 was > 100 µM (inactive); in the assay on ACHN, > 100 µM (inactive); with EKVX, > 100 µM (inactive); in the assay on HCT-116, > 100 µM (inactive); with HCT-15, above 100 µM; in the assay with HL-60, 19.9 µM (inactive). Moreover, the GI50 in the assay with HT-29, in the assay on LOX IMVI, with MCF7, in the assay on MDA-MB-231, in the assay with MDA-MB-435 and in the assay with Malme-3M was > 100 µM (inactive) each time. For the same compound, the GI50 with NCI/ADR-RES is > 100 µM (inactive); with OVCAR-3, > 100 µM (inactive); in the assay with SK-OV-3 it was > 100 µM (inactive); in the assay with SN12C it was > 100 µM (inactive); in the assay with SR it was > 10 µM (inactive); with SW-620, > 100 µM (inactive). Further, the GI50 in the assay on UACC-257 and with UACC-62 was > 100 µM (inactive) throughout.

In the case of `COc1ccc(/C=C2\CCC(Cc3ccccc3)(CN(C)C)C2=O)cc1` (stereo not given), the GI50 with A549 was 50.5 µM (inactive); in the assay on ACHN it was 82 µM (inactive); in the assay with EKVX, 42.5 µM (inactive); in the assay with HCT-116, 28.8 µM (inactive); with HCT-15, 26.7 µM; in the assay on HL-60, 19.7 µM (inactive). Also, the GI50 was 32.9 µM (inactive) in the assay with HT-29; 24.5 µM (inactive) in the assay with LOX IMVI; 41.8 µM (inactive) in the assay with MCF7; 98.9 µM (inactive) in the assay with MDA-MB-231; 32.1 µM (inactive) in the assay with MDA-MB-435; 42.3 µM (inactive) in the assay on Malme-3M. For the same compound, the GI50 was 42.2 µM (inactive) in the assay with NCI/ADR-RES; 43.7 µM (inactive) in the assay on OVCAR-3; > 100 µM (inactive) in the assay on SK-OV-3; 61.2 µM (inactive) in the assay on SN12C; 20.6 µM (inactive) in the assay on SR; 26.7 µM (inactive) with SW-620. Besides, the GI50 was 25.2 µM (inactive) in the assay with UACC-257 and 36.9 µM (inactive) in the assay on UACC-62.

As for `O=S(=O)(O)n1ccnc1`, the GI50 is > 100 µM (inactive) with A549; > 100 µM (inactive) in the assay with ACHN; > 100 µM (inactive) in the assay on EKVX; > 100 µM (inactive) in the assay on HCT-116; above 100 µM in the assay on HCT-15; > 100 µM (inactive) in the assay with HL-60. Also, the GI50 in the assay on HT-29, with LOX IMVI, in the assay on MCF7, with MDA-MB-231, in the assay with MDA-MB-435 and with Malme-3M was > 100 µM (inactive) throughout. Further, the GI50 with NCI/ADR-RES, with OVCAR-3, with SK-OV-3, in the assay on SN12C, in the assay with SR and in the assay with SW-620 was > 100 µM (inactive) in each case. The GI50 in the assay on UACC-257 and in the assay on UACC-62 was > 100 µM (inactive) throughout.
